Laboratory results reported in patent publication US20190298717A1 (BOARD OF REGENTS, THE UNIVERSITY OF TEXAS SYSTEM, priority 2016, published 2019).

What was measured:
SKN-1 = test system: SKN-1
Protocol: Western Blot Analysis. Protein expression was determined by Western blot analysis. Equal amount of protein from each sample was run in Tris-glycine SDS PAGE gel, followed by transferring to PVDF membrane. After blocking the membrane with 5% milk for 1 hour at room temperature, the membrane was incubated further for 2 hours with antibodies specific for target proteins: Nrf2, pNrf2(S40) from Novus (Littleton, Colo.); Keap1, HO-1, NQO1, GCLc, GCLm and lamin B1 from Cell Signaling (Danvers, Mass.); GAPDH from Santa Cruz (Dallas, Tex.); β-Actin from Thermo Fisher (Waltham, Mass.). The membrane was subsequently incubated with species-specific HRP-conjugated secondary antibody followed by incubation with chemiluminescence substrate and imaging. The band intensity of each of the target proteins was quantified using ImageQuant software (GE Healthcare, Sweden). Western blot analysis on worm lystaes was done similarly. […] Equal amounts of protein were run on the gel and SKN-1 protein level was detected using anti-GFP antibody.

[1] = test system: HEK293 overexpressing mutated tau-RD (P301L/V337M), Clone 9; settings: 10 μM, 48 h
Protocol: Two monoclonal cell lines of HEK293 overexpressing mutated tau-RD (repetitive domain; P301L/V337M) were selected; 1) Clone 1: used as control expressing truncated tau from amino acid 244 to 372, with P301L/V337M mutations which produces soluble non-toxic tau, and 2) Clone 9: which generates an aggregated form of tau (11). Three parameters were measured: cell viability, NAD, and ATP content.

Structure (SMILES): NNc1nncc2ccccc12 [Hydralazine]
- expression of SKN-1 isoforms (B and C) by Western blot (SKN-1; 100 μM, 72 hours): showed increases
- signal intensity and localization of SKN-1::GFP in intestinal nuclei and ASI neurons (SKN-1; in vivo): significantly increased
- cell viability, NAD, and ATP content of Clone 9 [1]: shows improvement in all three aspects
